Source: publication PMC10084752, “Heterologous Expression of the Hot Pepper ABA 8’-Hydroxylase in Escherichia coli for Phaseic Acid Production” (Journal of Microbiology and Biotechnology, 2023)

Target: T1, CaCYP707A2 (Capsicum annuum, UniProt X2C029)
T1 construct: gene CYP707A70; full-length, no N-terminal modification; pCW ori(+) in E. coli Rosetta (DE3) pLysS; 54 kDa
T1 sequence (X2C029 1-477): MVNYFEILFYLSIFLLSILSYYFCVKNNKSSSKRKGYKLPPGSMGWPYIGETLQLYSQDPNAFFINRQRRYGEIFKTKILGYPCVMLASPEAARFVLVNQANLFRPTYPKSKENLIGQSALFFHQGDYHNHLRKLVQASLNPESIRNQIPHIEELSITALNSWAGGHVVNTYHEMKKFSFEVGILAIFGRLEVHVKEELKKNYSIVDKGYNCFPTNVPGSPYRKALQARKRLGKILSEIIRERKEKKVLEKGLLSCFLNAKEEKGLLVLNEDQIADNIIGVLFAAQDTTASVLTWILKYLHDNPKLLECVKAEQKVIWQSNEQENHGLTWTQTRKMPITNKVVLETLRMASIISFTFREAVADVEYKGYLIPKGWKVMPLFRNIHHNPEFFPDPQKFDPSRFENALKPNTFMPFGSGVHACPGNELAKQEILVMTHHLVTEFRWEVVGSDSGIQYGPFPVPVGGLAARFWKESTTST
Experiment: spectral binding titration (type I UV-visible difference spectrum)

Kd: 5.8 ± 0.93 µM
SMILES: CC1=CC(=O)CC(C)(C)C1(O)/C=C/C(C)=C\C(=O)O (stereo in doubt) [(+)-ABA]
